Each structure is given as a SMILES string.

The assay addresses T1, Ino-1 (Corynebacterium glutamicum, UniProt Q8NLE6).
T1 construct: His6-tagged (pXMJ19-His6-ino-1), homologous expression in C. glutamicum delta-ino-1, Ni-NTA
Kind of assay: intrinsic protein fluorescence quenching (Ex […] nm, Em […] nm). It counts as binding. The following applies: read-out: apparent K D.

T1 sequence (Q8NLE6 whole entry): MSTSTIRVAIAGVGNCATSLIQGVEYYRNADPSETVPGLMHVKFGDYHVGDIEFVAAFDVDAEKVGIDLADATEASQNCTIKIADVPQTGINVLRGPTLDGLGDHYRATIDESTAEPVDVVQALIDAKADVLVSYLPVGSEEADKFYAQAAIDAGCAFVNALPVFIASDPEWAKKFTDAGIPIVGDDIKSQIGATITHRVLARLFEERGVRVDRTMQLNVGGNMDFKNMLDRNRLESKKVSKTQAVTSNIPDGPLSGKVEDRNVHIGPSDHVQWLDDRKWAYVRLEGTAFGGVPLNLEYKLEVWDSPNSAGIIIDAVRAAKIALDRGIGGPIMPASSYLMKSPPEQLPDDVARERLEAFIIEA

For the molecule `NC(=O)c1ccc[n+]([C@@H]2O[C@H](COP(=O)(O)OP(=O)(O)OC[C@H]3O[C@@H](n4cnc5c(N)ncnc54)[C@H](O)[C@@H]3O)[C@@H](O)[C@H]2O)c1` [NAD^+], the Kd stood at 4.7 ± 0.8 µM.

Source of the values: paper PMC6528642, “Myo‐inositol‐1‐phosphate synthase (Ino‐1) functions as a protection mechanism in Corynebacterium glutamicum under oxidative stress” (MicrobiologyOpen, 2018).
